Test results: ChEMBL document CHEMBL3639137, “3H-imidazo [4, 5-C] pyridine-6-carboxamides as anti-inflammatory agents” (2014)

molecular target: T1, Prostaglandin E synthase (Homo sapiens, UniProt O14684); experiment: Enzyme Assay: The aim of this assay is to determine the affinity of a test compound for the mPGES-1 enzyme. 47 ul of recombinant human mPGES-1 (0.5 ug protein/well) containing microsomal suspension in a buffer containing GSH, (2.5 mmol/L L-Glutathione reduced, dissolved in 0.1 mol/L Phosphat Buffer pH 7.4) is dispensed in a 384-well plate and thereafter 1 ul of the test compound(s) is/are added and incubated for 25 minutes at room temperature. The enzyme reaction is started by the addition of 2 ul PGH2 (final conc. 2 uM) dissolved in water-free Diglyme. After 60 seconds the reaction is terminated by addition of a stop solution containing FeCl2 (10 uL 0.074 mol/l FeCl2). The samples are diluted between 1:25 in PBS (Phosphate Buffered Saline). 10 ul of the diluted samples are transferred to 384-well low volume plate.
T1 sequence (O14684 whole entry): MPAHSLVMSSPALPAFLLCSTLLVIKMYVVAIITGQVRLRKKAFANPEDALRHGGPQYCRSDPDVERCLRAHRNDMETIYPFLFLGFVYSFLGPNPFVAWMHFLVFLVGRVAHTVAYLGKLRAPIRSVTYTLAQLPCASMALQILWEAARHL

Row | SMILES | IC50 [nM]
1 | CC(C)(C)C(=O)NCc1ccc(Cl)c(Nc2nc3c(F)c(OCC(F)(F)F)c(C(=O)N[C@H]4CC[C@H](C(F)(F)F)CC4)cc3[nH]2)c1Cl | 2
2 | Cn1c(Nc2c(Cl)ccc(CNC(=O)C(C)(C)C)c2Cl)nc2cc(C(=O)Nc3cccc(C#N)c3)c(OCC(F)F)cc21 | 3
3 | Cn1c(Nc2c(Cl)ccc(CNC(=O)C(C)(C)C)c2Cl)nc2cc(C(=O)Nc3ccc(Br)cc3)c(F)cc21 | 2
4 | CC(C)(C)C(=O)NCc1ccc(Cl)c(Nc2nc3cc(OC(F)F)c(C(=O)N[C@H]4CC[C@H](C(F)(F)F)CC4)cc3[nH]2)c1Cl | 2
